Test results from ChEMBL document CHEMBL3400149, “Discovery of novel spiro 1,3,4-thiadiazolines as potent, orally bioavailable and brain penetrant KSP inhibitors” (Bioorg Med Chem, 2015).

How the values were obtained:
[1] = molecular target: T1, Kinesin-like protein KIF11 (Homo sapiens, UniProt P52732); assay: Inhibition of KSP in human HCT116 cells assessed as phos-histone H3 level by immunofluorescent assay; format: cell-based, HCT-116
T1 sequence (P52732 whole entry): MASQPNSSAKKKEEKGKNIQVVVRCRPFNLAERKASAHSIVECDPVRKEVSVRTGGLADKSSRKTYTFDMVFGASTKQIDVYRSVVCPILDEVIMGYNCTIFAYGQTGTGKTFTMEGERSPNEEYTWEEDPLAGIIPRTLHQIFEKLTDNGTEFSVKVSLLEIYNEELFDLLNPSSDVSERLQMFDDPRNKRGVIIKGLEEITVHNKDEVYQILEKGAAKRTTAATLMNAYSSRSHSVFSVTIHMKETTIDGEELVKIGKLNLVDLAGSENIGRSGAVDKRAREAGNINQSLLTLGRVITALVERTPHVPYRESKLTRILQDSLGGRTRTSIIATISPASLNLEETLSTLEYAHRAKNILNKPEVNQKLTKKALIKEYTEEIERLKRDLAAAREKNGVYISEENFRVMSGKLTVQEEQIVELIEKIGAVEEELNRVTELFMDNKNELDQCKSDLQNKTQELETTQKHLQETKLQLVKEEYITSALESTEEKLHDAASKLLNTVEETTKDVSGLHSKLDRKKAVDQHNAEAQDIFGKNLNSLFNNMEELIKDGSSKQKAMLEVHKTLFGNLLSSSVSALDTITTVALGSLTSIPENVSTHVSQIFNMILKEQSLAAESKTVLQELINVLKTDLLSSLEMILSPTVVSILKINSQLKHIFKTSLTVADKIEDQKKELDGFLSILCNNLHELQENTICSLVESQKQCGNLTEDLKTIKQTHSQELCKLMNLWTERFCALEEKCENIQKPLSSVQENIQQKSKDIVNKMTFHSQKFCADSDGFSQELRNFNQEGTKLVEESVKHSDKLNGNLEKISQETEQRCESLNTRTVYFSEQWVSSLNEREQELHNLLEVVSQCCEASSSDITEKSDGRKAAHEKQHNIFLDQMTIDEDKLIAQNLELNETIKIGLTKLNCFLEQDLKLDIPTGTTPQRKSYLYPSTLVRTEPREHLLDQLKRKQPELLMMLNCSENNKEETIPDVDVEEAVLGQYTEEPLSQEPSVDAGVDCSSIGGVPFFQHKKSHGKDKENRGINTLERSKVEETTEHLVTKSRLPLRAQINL

[2] = Retention time of the compound; format: physicochemical
[3] = Clearance in CD1 mouse at 5 mg/kg, iv; format: ADME, organism-based; parameters: dose 5 mg/kg, route intravenous; settings: in vivo
[4] = AUC in CD1 mouse at 10 mg/kg, po; format: ADME, organism-based; parameters: dose 10 mg/kg, route oral; settings: plasma
[5] = Cmax in CD1 mouse at 10 mg/kg, po; format: ADME, organism-based; parameters: dose 10 mg/kg, route oral; settings: in vivo
[6] = AUC in CD1 mouse at 5 mg/kg, iv; format: ADME, organism-based; parameters: dose 5 mg/kg, route intravenous; settings: plasma
[7] = Oral bioavailability in CD1 mouse at 10 mg/kg; format: ADME, organism-based; settings: in vivo

EC50 [1] [nM] | SMILES | further results
452 | CCC(=O)N1N=C(c2cc(F)ccc2F)SC12CCOc1ccccc12 (configuration not stated) | 
11 | CC(=O)N1N=C(c2cc(F)ccc2F)S[C@@]12c1ccccc1OC[C@@H]2CCN | Retention_time [2]: 5.4 min
> 1000 | CC(=O)N1N=C(c2cc(F)ccc2F)S[C@]12c1ccccc1OC[C@@H]2CCN | Retention_time [2]: 2.33 min
> 500 | CC(C)C(=O)N1N=C(c2cc(F)ccc2F)SC12CCOc1ccccc12 (configuration not stated) | 
246 | CC(=O)N1N=C(c2cc(F)ccc2F)SC12COc1ccccc12 (configuration not stated) | 
615 | O=C(CO)N1N=C(c2cc(F)ccc2F)SC12CCOc1ccccc12 (configuration not stated) | 
> 500 | NCCC(=O)N1N=C(c2cc(F)ccc2F)SC12CCOc1ccccc12 (configuration not stated) | 
5 | CC(=O)N1N=C(c2cc(F)ccc2F)SC12c1ccccc1OCC2CCN (racemic) | 
367 | CNCCCC(=O)N1N=C(c2cc(F)ccc2F)SC12CCOc1ccccc12 (configuration not stated) | 
205 | CC(=O)N1N=C(c2cc(F)ccc2F)S[C@]12c1ccccc1OC[C@H]2CCN | Retention_time [2]: 2.15 min
179 | CC(=O)N1N=C(c2cc(F)ccc2F)SC12CCNc1ccccc12 (configuration not stated) | 
> 1000 | NCC(=O)N1N=C(c2cc(F)ccc2F)SC12CCOc1ccccc12 (configuration not stated) | 
> 1000 | CC(C)(C)C(=O)N1N=C(c2cc(F)ccc2F)SC12CCOc1ccccc12 (configuration not stated) | 
5 | CC(=O)N1N=C(c2cc(F)ccc2F)S[C@@]12c1cccc(F)c1OC[C@H]2CCN | clearance [3]: 136 mL/min/kg; AUC [4]: 1.3 µM·h; Cmax [5]: 430 nM; AUC [6]: 1.5 µM·h; bioavailability [7]: 46%
